Experimental data reported in patent publication US20210378934A1, “HAIR CARE ACTIVE AGENT” (GIVAUDAN SA, priority 2018, published 2021).
≈ marks a conversion by molar mass, not a printed value. Read-outs that look alike come from different tables or passages of the source.

Legend:
[1] = system: co-culture of Normal Human Epidermal Keratinocytes (NHEKs) and Normal Human Melanocytes (NHMs); assay: Melanin production in NHK/NHM co-culture: comparison (Example 7); type: cell-based; details: 5 days; for effect on melanin synthesis / melanin content (in words): taxifolin glucoside 0.13 μg/mL alone, + N-acetyl tyrosine 15 μg/mL or + L-tyrosine 15 μg/mL
Excerpt: The aim of this study was to compare the effect of the hair care active agent of the present invention, which comprises taxifolin glucoside and N-acetyl tyrosine, with those of L-tyrosine (positive reference), of taxifolin glucoside, and of a mixture of taxifolin glucoside and L-tyrosine. The model used for this comparison was a co-culture of Normal Human Epidermal Keratinocytes (NHEKs) and Normal Human Melanocytes (NHMs).
The cell culture was realized with primary cells isolated from human skin biopsies.
Normal Human Keratinocytes (NHKs) were seeded at 60000 cells per well in 6-wells plates pre-coated with collagen I. 4 hours later, Normal Human Melanocytes (NHMs) were seeded at 60 000 cells per well in the same 6-wells plates. The cells were incubated for 48 hours in complete medium (EpiLife® supplemented with HKGS=Human Kerationcyte Growth Supplement).
After 48 hours of culture, the cells were stimulated for 5 days with the following compositions: • L-tyrosine at 450 μg/mL (Sigma) • Taxifolin glucoside at 0.13 μg/mL • Taxifolin glucoside at 0.13 μg/mL+N-acetyl tyrosine at 15 μg/mL (similar to Example 1) • Taxifolin glucoside at 0.13 μg/mL+L-tyrosine at 15 μg/mL (Sigma)
The compositions were diluted in a basal medium without supplements (EpiLife®). Every 2 days, the treatments were renewed.
After 5 days of treatment, cells were rinsed off with PBS. Then, in each well, 200 μL of a 0.5N NaOH solution was added. The cell lysates were collected in 1.5 mL microtubes with secure caps. In parallel, a standard range of melanin was prepared (1000 μg/mL). Microtubes of samples and standard range were heated for 1 hour at 80° C. in a dry bath. After the heating, 100 μL of each sample was transferred to a 96-wells plate.
Optical density was measured at 405 nm to determine the melanin content. […]
If it was not significant, the data was evaluated with statistical parametric tests (ANOVA followed by Dunnett's multiple comparisons test).
If it was significant, the data was evaluated with statistical non parametric tests (ANOVA of Kruskall-Wallis followed by a Mann-Whitney U test).

[2] = system: Anagen VI human hair follicles; assay: ROS evaluation (DCFH-DA) in micro-dissected hair follicles under cumene hydroperoxide stress (Example 5); type: cell-based; details: 50 μM cumene hydroperoxide, 1 hour (oxidative stimulus)
Experimental: After the selection, the HFs were incubated for 1 hour with the standard solution from Example 1 dissolved in William's E medium. Afterwards, the HFs were cultured for 30 min in the presence of dichlorofluoerescein diacetate (DCFH-DA), a probe that reacts with ROS to become fluorescent. […] At the end of the experimental phase, the HFs were harvested, cryo-fixed and cut at the cryo-micro-tome for consequent image acquisition and image analysis of fluorescence within the sections. A slide for each HF was processed by image acquisition and related analysis (i.e. 12 images for each treatment). […]

[3] = system: melanocytes and melanoblasts in Anagen VI human hair follicles; assay: NKI/beteb melanocyte quantification in micro-dissected hair follicles under oxidative stress (Example 5); type: cell-based; details: cumene hydroperoxide oxidative stress
Experimental: Anagen VI human hair follicles (HFs) were dissected from the scalp (Donor). The HFs used were selected after 18 hours of pre-culture. The following parameters were evaluated in the selection procedure: growth rate (>0.18 mm/18 hours), morphology (no signs of dystrophy).
Starting from day 1, after the selection at day 0, the test compounds were dissolved in the culture medium and the HFs were cultured up to planned endpoints. Twelve hair follicles were used per treatment for each read out parameter. The culture medium was renewed every other day.
Total melanocytes quantification was obtained following NKI/beteb-DAPI double immunostaining of the cryo-sections. NKI/beteb antibody (#MON7006-1 by Monosan) recognizes a (pre-) melanosomal antigen present in all melanocytes (i.e. both active melanocytes and melanoblasts).
On the immunostained sections, image analysis was performed in order to quantify the number of NKI-beteb positive cells within each hair follicle. The obtained value was normalized relative to the total number of cells of the considered area.
Image analysis was performed using ImageJ software (NIH, USA).
All quantitative data was summarized in terms of the mean score, standard deviation and standard error of the mean for each treatment.
Differences between groups were evaluated by One-way ANOVA with permutation test followed by Tukey and t-test with permutation.

[4] = Solubility; type: physicochemical
[5] = system: melanogenesis; details: Sang Mi An et al. Phytother. Res. 22, 1200-1207 (2008); cited from earlier work

## N[C@@H](Cc1ccc(O)cc1)C(=O)O [L-tyrosine]
[1]; L-tyrosine 450 μg/mL, taxifolin glucoside 0.13 μg/mL + N-acetyl tyrosine 15 μg/mL, p<0.001
  melanin content / synthesis of melanin, change compared to the untreated condition: +35%

## Taxifolin glucoside
[1]
  effect on melanin synthesis / melanin content (in words): not able to induce synthesis of melanin
[1]; listed as taxifolin glucoside
  effect on melanin synthesis / melanin content (in words): does not have any influence

## cumene hydroperoxide
[2]
  increase of ROS production compared to the untreated condition: +256%
[3]
  reduction of the number of melanocytes compared to the untreated condition: 78%

## O=C1c2c(O)cc(O)cc2O[C@H](c2ccc(O)c(O)c2)[C@H]1O [taxifolin]
[4]; water with taxifolin glucoside, aqueous with cosolvent or surfactant or cyclodextrin, suitable amounts of taxifolin glucoside, molar ratio about 1:1, read-out: solubility of taxifolin in water in the presence of taxifolin glucoside
  solubility: ≥ 20000 µg/mL
[4]; water, typical, read-out: solubility of taxifolin in water
  solubility: ~1000 µg/mL (≈ 3.29 mM)
[5]
  effect on melanogenesis (in words): inhibit melanogenesis
